Reference: US20240196899A1, “PESTICIDAL MIXTURES” (priority 2021, published 2024)

Legend:
S. frugiperda = test: Insecticidal % control against S. frugiperda, Colby synergy; assay type: in vivo, Spodoptera frugiperda; conditions: 120 hours after treatment
Description: (§1) Colby's method is used to determine if synergy exists for a combination of active ingredients. According to Colby, the expected action (E) of active ingredients A+B is:
(§2) [formula] • where E=expected efficacy, A and B=the efficacy of two active ingredients A and B at a given dose.
(§3) When the percentage of control observed (O) for the combination is greater than the expected (E) percentage, there is a synergistic effect. The synergism ratio (R) is calculated as the ratio between the […].
(§4) The insecticidal compounds A (Novaluron) and B (mix partner) are formulated as equivalent suspension concentrates to eliminate the effects of differing formulation inerts on biological activity. Efficacy of the insecticidal compositions is evaluated with reference to a scale of 0% to 100% in comparison with untreated control plots. 0 means no damage and 100 means complete destruction of the harmful pests.
(§5) Likewise following experimentations were done on other mixtures of novaluron on various pests, the result of which are summarized in the below tables: […]

A. gossypii = test: Insecticidal % control against A. gossypii, Colby synergy; assay type: in vivo, Aphis gossypii; conditions: 96 hours after treatment
Description: as §1, §2, §3, §4, §5

B. tabaci = test: Insecticidal % control against B. tabaci, Colby synergy; assay type: in vivo, Bemisia tabaci; conditions: Table 7, 72 hours after treatment
Description: as §1, §2, §3, §4, §5

T. absoluta = test: Insecticidal % control against T. absoluta, Colby synergy; assay type: in vivo, Tuta absoluta; conditions: 72 hours after treatment
Description: as §1, §2, §3, §4, §5

H. halys = test: Insecticidal % control against H. halys, Colby synergy; assay type: in vivo, Halyomorpha halys; conditions: Table 20 B; 144 hours after treatment; 50 ppm
Description: as §1, §2, §3, §4, §5

[1] = test system: Cotton Leafworm, S. littoralis; test: Insecticidal % control against Cotton Leafworm, S. littoralis, Colby synergy; assay type: in vivo, Spodoptera littoralis; conditions: 72 hours after treatment
Description: as §1, §2, §3, §4, §5

[2] = test system: Spodoptera littoralis larvae; test: Larval mortality of S. littoralis fed on treated castor bean leaves (tank mix novaluron + methoxyfenozide), Colby synergy; assay type: in vivo; conditions: Table 1, 0.01 mg a.i./L of each active
Description: as §1, §2, §3
A representative experiment was conducted to evaluate the insecticidal control of novaluron, a compound II, namely methoxyfenozide as well as a mixture of novaluron and methoxyfenozide against Spodoptera littoralis larvae.
(§6) The experiments were conducted by applying commercially available compositions of Novaluron (Rimon®) and methoxyfenozide (Runner®) alone or together. The compositions were diluted with water to the stated concentration of the active compound.
(§7) The following active ingredients and their mixtures were evaluated: • Novaluron: 0.01 mg a.i./liter • Methoxyfenozide: 0.01 mg a.i./liter • Novaluron+Methoxyfenozide 0.01 mg a.i./liter+0.01 mg a.i./liter
(§8) To evaluate the insecticidal control of novaluron and methoxyfenozide alone and in a binary mixture, castor bean leaves were treated with the above listed treatments. The treated leaves were exposed for 4-day feeding to 3rd-instar Spodoptera littoralis and the larvae were exposed for additional 4 days on untreated leaves. Larval mortality was determined at day 4 and 8. The treatments were composed of 3-5 replicates of 10 larvae each.

F. occidentalis = test: Insecticidal % control against F. occidentalis, Colby synergy; assay type: in vivo, Frankliniella occidentalis
Description: as §1, §2, §3, §4, §5

M. persicae = test: Insecticidal % control against M. persicae, Colby synergy; assay type: in vivo, Myzus persicae
Description: as §1, §2, §3, §4, §5

[3] = test system: Spodoptera littoralis larvae; test: Larval weight gain (LWG) of S. littoralis on treated castor bean leaves; assay type: in vivo; conditions: Table 3
Description: as §6, §7, §8
Larval weight gain (LWG) was also measured in order to determine the effectiveness of the mixture of novaluron and methoxyfenozide when compared to the solo application of novaluron and methoxyfenozide.
Table 3 below summarizes the larval weight gain (LWG) (compared to the control), that was determined 4 days after treatment for the mixture of novaluron and methoxyfenozide.

T. urticae = test: Insecticidal % control against T. urticae, Colby synergy; assay type: in vivo, Tetranychus urticae
Description: as §1, §2, §3, §4, §5

## O=C(NC(=O)c1c(F)cccc1F)Nc1ccc(OC(F)(F)C(F)OC(F)(F)F)c(Cl)c1 (single isomer, unassigned; (+)) [Novaluron, (+)-I-[3-chloro-4-(1,1,2-trifluoro-2-trifluoromethoxyethoxy)phenyl]-3-(2,6-difluorobenzoyl) urea]
S. frugiperda; Table 5 A, 0.01 ppm
  Observed % control (O): 27%
S. frugiperda; Table 5 A, 0.05 ppm
  Observed % control (O): 40%
S. frugiperda; Table 9, 0.01 ppm
  Observed % control (O): 27%
S. frugiperda; Table 9, 0.025 ppm
  Observed % control (O): 30%
S. frugiperda; Table 10 A, 0.025 ppm
  Observed % control (O): 30%
A. gossypii; Table 18 A, 10 ppm
  Observed % control (O): 16.2%
A. gossypii; Table 19 A, 100 ppm
  Observed % control (O): 16.5%
B. tabaci; 7 ppm
  Observed % control (O): 23.1%
B. tabaci; 35 ppm
  Observed % control (O): 25.2%
T. absoluta; Table 2, 300 ppm
  Observed % control (O): 0%
T. absoluta; Table 5 C, 0.1 ppm
  Observed % control (O): 16.7%
T. absoluta; Table 5 C, 1 ppm
  Observed % control (O): 16.7%
T. absoluta; Table 5 C, 300 ppm
  Observed % control (O): 16.7%
H. halys
  Observed % control (O): 12.5%
[1]; Table 5 B, 0.02 ppm
  Observed % control (O): 0%
[1]; Table 8, 12 ppm
  Observed % control (O): 75%
[1]; Table 10 B, 0.02 ppm
  Observed % control (O): 30%
[1]; Table 11, 12 ppm
  Observed % control (O): 25%
[1]; Table 12, 12 ppm
  Observed % control (O): 75%
[1]; Table 13, 12 ppm
  Observed % control (O): 75%
[1]; Table 16, 0.04 ppm
  Observed % control (O): 73%
[1]; Table 20 A, 0.02 ppm
  Observed % control (O): 0%
[1]; Table 20 A, 0.2 ppm
  Observed % control (O): 5%
[1]; Table 21, 12 ppm
  Observed % control (O): 12.5%
[2]; 3rd-instar larvae, 4-day feeding on treated leaves, day 4
  Larval mortality, % (observed) 4 d: 3.5%
[2]; 4 days on treated then 4 days on untreated leaves, day 8
  Larval mortality, % (observed) 8 d: 20%
F. occidentalis; Table 4 A, 48 hours after treatment, 5.3 ppm
  Observed % control (O): 14.0%
F. occidentalis; Table 4 B, 72 hours after treatment, 5.3 ppm
  Observed % control (O): 20.0%
F. occidentalis; Table 4 C, 7 days after treatment, 5.3 ppm
  Observed % control (O): 40.0%
F. occidentalis; Table 5 D, 48 hours after treatment, 3.5 ppm
  Observed % control (O): 4.0%
F. occidentalis; Table 5 E, 72 hours after treatment, 3.5 ppm
  Observed % control (O): 4.0%
F. occidentalis; Table 5 F, 7 days after treatment, 3.5 ppm
  Observed % control (O): 8.0%
F. occidentalis; Table 18 B, 72 hours after treatment, 5 ppm
  Observed % control (O): 10.0%
F. occidentalis; Table 18 B, 72 hours after treatment, 500 ppm
  Observed % control (O): 10.0%
F. occidentalis; Table 20 C, 48 hours after treatment, 1 ppm
  Observed % control (O): 16.0%
F. occidentalis; Table 20 D, 72 hours after treatment, 1 ppm
  Observed % control (O): 50.0%
F. occidentalis; Table 20 D, 72 hours after treatment, 100 ppm
  Observed % control (O): 50.0%
F. occidentalis; Table 20 E, 7 days after treatment, 1 ppm
  Observed % control (O): 74.0%
F. occidentalis; Table 20 E, 7 days after treatment, 100 ppm
  Observed % control (O): 84.0%
M. persicae; Table 6 A, 72 hours after treatment, 1 ppm
  Observed % control (O): 34%
M. persicae; Table 6 B, 7 days after treatment, 1 ppm
  Observed % control (O): 38.8%
M. persicae; Table 15 A, 48 hours after treatment, 50 ppm
  Observed % control (O): 14%
M. persicae; Table 15 B, 72 hours after treatment, 0.5 ppm
  Observed % control (O): 30%
M. persicae; Table 15 B, 72 hours after treatment, 50 ppm
  Observed % control (O): 44%
M. persicae; Table 17 A, 72 hours after treatment, 0.2 ppm
  Observed % control (O): 56%
M. persicae; Table 17 B, 7 days after treatment, 0.2 ppm
  Observed % control (O): 62.5%
M. persicae; Table 19 B, 7 days after treatment, 500 ppm
  Observed % control (O): 72.9%
[3]; 4 days after treatment, 0.01 mg a.i./L of each active
  LWG % rel. Control: 108 % rel. Control
[3]; applied alone
  effect on the weight gain of the Spodoptera littoralis larvae: neither novaluron nor methoxyfenozide alone have any effect on the weight gain
T. urticae; Table 6 C, 48 hours after treatment, 6 ppm
  Observed % control (O): 0%
T. urticae; Table 6 D, 72 hours after treatment, 6 ppm
  Observed % control (O): 0%
T. urticae; Table 6 E, 7 days after treatment, 6 ppm
  Observed % control (O): 6.1%
T. urticae; Table 14 A, 48 hours after treatment, 2.4 ppm
  Observed % control (O): 12%
T. urticae; Table 14 A, 48 hours after treatment, 120 ppm
  Observed % control (O): 8%
T. urticae; Table 14 B, 72 hours after treatment, 2.4 ppm
  Observed % control (O): 13%
T. urticae; Table 14 B, 72 hours after treatment, 120 ppm
  Observed % control (O): 10%
T. urticae; Table 14 C, 7 days after treatment, 2.4 ppm
  Observed % control (O): 15%
T. urticae; Table 14 C, 7 days after treatment, 120 ppm
  Observed % control (O): 17%
